Results published in patent US12319692B2, “Anti-influenza virus pyrimidine derivatives” (GUANGDONG RAYNOVENT BIOTECH CO., LTD., priority 2016, dated 2025).

Experiments:
[1] = system: Influenza virus A/Weiss/43 (H1N1); experiment: Influenza virus cytopathic effect (CPE) experiment in MDCK cells; format: cell-based; conditions: 120 h, 5 days, CCK8 cell viability
[2] = system: influenza A virus H1N1 (H1N1 A/WSN/33); experiment: In vivo pharmacodynamics in mouse infection model of influenza A virus H1N1; conditions: female BALB/c mice, H1N1 A/WSN/33, 10 mg/kg oral twice a day, day 1 to day 7, first dose 36 hours after infection

Row | SMILES | EC50 [1] [nM] | Survival Rate (percentages) [2] [%] | Weight Losing Rate (day 9) [2] [%]
1 | CSc1nc(-c2c[nH]c3ncc(F)cc23)nc(N[C@H]2C3CCC(CC3)[C@@H]2C(=O)O)c1F [WX-139] | 0.02 |  | 
2 | CCSc1nc(-c2c[nH]c3ncc(F)cc23)nc(N[C@H]2C3CCC(CC3)[C@@H]2C(=O)O)c1F [WX-156] | 0.01 |  | 
3 | CSc1nc(-c2c[nH]c3c(F)cc(F)cc23)nc(N[C@H]2C3CCC(CC3)[C@@H]2C(=O)O)c1F [WX-160] | 0.5 |  | 
4 | O=C(O)[C@H]1C2CCC(CC2)[C@@H]1Nc1nc(-c2c[nH]c3ncc(F)cc23)nc(-n2ccnc2)c1F [WX-186] | 0.1 |  | 
5 | O=C(O)[C@H]1C2CCC(CC2)[C@@H]1Nc1nc(-c2n[nH]c3ncc(F)cc23)nc(C2CC2)c1F [WX-216] | 0.013 | 100 | 4.8
6 | O=C(O)[C@H]1C2CCC(CC2)[C@@H]1Nc1nc(-c2c[nH]c3ncc(F)cc23)nc(-c2ccncc2)c1F [WX-230] | 0.1 |  | 
7 | Cn1cc(-c2nc(-c3c[nH]c4ncc(F)cc34)nc(N[C@H]3C4CCC(CC4)[C@@H]3C(=O)O)c2F)cn1 [WX-231] | 0.2 | 100 | 12.9
8 | O=C(O)[C@H]1C2CCC(CC2)[C@@H]1Nc1nc(-c2c[nH]c3ncc(F)cc23)nc(SCC(F)(F)F)c1F [WX-234] | 0.1 |  | 
9 | O=C(O)[C@H]1C2CCC(CC2)[C@@H]1Nc1nc(-c2c[nH]c3ncc(F)cc23)nc(-c2cccs2)c1F [WX-236] | 0.01 |  | 
10 | O=C(O)[C@H]1C2CCC(CC2)[C@@H]1Nc1nc(-c2c[nH]c3ncc(F)cc23)nc(-c2ccsc2)c1F [WX-240] | 0.03 |  | 
11 | CC(C)(C)Sc1nc(-c2c[nH]c3ncc(F)cc23)nc(N[C@H]2C3CCC(CC3)[C@@H]2C(=O)O)c1F [WX-241] | 0.01 |  | 
12 | Cc1noc(C)c1-c1nc(-c2c[nH]c3ncc(F)cc23)nc(N[C@H]2C3CCC(CC3)[C@@H]2C(=O)O)c1F [WX-245] | 4 |  | 
13 | Cc1ccc(-c2nc(-c3c[nH]c4ncc(F)cc34)nc(N[C@H]3C4CCC(CC4)[C@@H]3C(=O)O)c2F)s1 [WX-247] | 56.6 |  | 
14 | CC(C)C#Cc1nc(-c2c[nH]c3ncc(F)cc23)nc(N[C@H]2C3CCC(CC3)[C@@H]2C(=O)O)c1F [WX-249] | 0.009 |  | 
15 | O=C(O)[C@H]1C2CCC(CC2)[C@@H]1Nc1nc(-c2c[nH]c3ncc(F)cc23)nc(-c2cc[nH]n2)c1F [WX-260] | 1.1 |  | 
16 | CC(C)Sc1nc(-c2c[nH]c3ncc(F)cc23)nc(N[C@H]2C3CCC(CC3)[C@@H]2C(=O)O)c1F [WX-261] | 0.018 |  | 
17 | O=C(O)[C@H]1C2CCC(CC2)[C@@H]1Nc1nc(-c2c[nH]c3ncc(F)cc23)nc(-c2cnn(CCO)c2)c1F [WX-263] | 1.5 |  | 
18 | Cn1cc(-c2nc(-c3n[nH]c4ncc(F)cc34)nc(N[C@H]3C4CCC(CC4)[C@@H]3C(=O)O)c2F)cn1 [WX-264] | 0.1 |  | 
19 | O=C(O)[C@H]1C2CCC(CC2)[C@@H]1Nc1nc(-c2n[nH]c3ncc(F)cc23)nc(-c2cn[nH]c2)c1F [WX-265] | 2.8 |  | 
20 | O=C(O)[C@H]1C2CCC(CC2)[C@@H]1Nc1nc(-c2n[nH]c3ncc(F)cc23)nc(-c2ccsc2)c1F [WX-269] | 0.019 |  | 
21 | O=C(O)[C@H]1C2CCC(CC2)[C@@H]1Nc1nc(-c2n[nH]c3ncc(F)cc23)nc(-c2cccs2)c1F [WX-271] | 0.057 |  | 
22 | CC(C)(C)Sc1nc(-c2n[nH]c3ncc(F)cc23)nc(N[C@H]2C3CCC(CC3)[C@@H]2C(=O)O)c1F [WX-274] | 0.1 |  | 
23 | CC(C)(C)C#Cc1nc(-c2c[nH]c3ncc(F)cc23)nc(N[C@H]2C3CCC(CC3)[C@@H]2C(=O)O)c1F [WX-275] | 0.009 |  | 
24 | CSc1nc(-c2nc(-c3c[nH]c4ncc(F)cc34)nc(N[C@H]3C4CCC(CC4)[C@@H]3C(=O)O)c2F)c[nH]1 [WX-276] | 3.6 |  | 
25 | O=C(O)c1ccc(-c2nc(-c3c[nH]c4ncc(F)cc34)nc(N[C@H]3C4CCC(CC4)[C@@H]3C(=O)O)c2F)s1 [WX-278] | 2.7 |  | 

Row | SMILES | EC50 [1] [nM] | Survival Rate (percentages) [2] [%] | Weight Losing Rate (day 9) [2] [%]
26 | CN(C)Cc1ccc(-c2nc(-c3c[nH]c4ncc(F)cc34)nc(N[C@H]3C4CCC(CC4)[C@@H]3C(=O)O)c2F)s1 [WX-279] | 0.025 | 100 | 28.7
27 | Cn1cc(-c2nc(-c3n[nH]c4ncc(C(F)(F)F)cc34)nc(N[C@H]3C4CCC(CC4)[C@@H]3C(=O)O)c2F)cn1 [WX-280] | 0.055 |  | 
28 | O=C(O)[C@H]1C2CCC(CC2)[C@@H]1Nc1nc(-c2c[nH]c3ncc(F)cc23)nc(-c2cnn(C3CC3)c2)c1F [WX-281] | 0.026 |  | 
29 | COCCn1cc(-c2nc(-c3c[nH]c4ncc(F)cc34)nc(N[C@H]3C4CCC(CC4)[C@@H]3C(=O)O)c2F)cn1 [WX-283] | 0.4 |  | 
30 | CC(C)(C(=O)O)n1cc(-c2nc(-c3c[nH]c4ncc(F)cc34)nc(N[C@H]3C4CCC(CC4)[C@@H]3C(=O)O)c2F)cn1 [WX-284] | 10 |  | 
31 | Cc1csc(-c2nc(-c3c[nH]c4ncc(F)cc34)nc(N[C@H]3C4CCC(CC4)[C@@H]3C(=O)O)c2F)c1 [WX-285] | 32 |  | 
32 | CC(C)(C(N)=O)n1cc(-c2nc(-c3c[nH]c4ncc(F)cc34)nc(N[C@H]3C4CCC(CC4)[C@@H]3C(=O)O)c2F)cn1 [WX-286] | 3.7 |  | 
33 | CN1CCN(C(=O)c2ccc(-c3nc(-c4c[nH]c5ncc(F)cc45)nc(N[C@H]4C5CCC(CC5)[C@@H]4C(=O)O)c3F)s2)CC1 [WX-288] | 2.3 |  | 
34 | CN1CCN(Cc2ccc(-c3nc(-c4c[nH]c5ncc(F)cc45)nc(N[C@H]4C5CCC(CC5)[C@@H]4C(=O)O)c3F)s2)CC1 [WX-289] | 0.1 |  | 
35 | O=C(O)[C@H]1C2CCC(CC2)[C@@H]1Nc1nc(-c2c[nH]c3ncc(F)cc23)nc(-c2ccc(CN3CCOCC3)s2)c1F [WX-290] | 0.041 | 40 | 27.6
36 | CN1CC(n2cc(-c3nc(-c4c[nH]c5ncc(F)cc45)nc(N[C@H]4C5CCC(CC5)[C@@H]4C(=O)O)c3F)cn2)C1 [WX-293] | 8 |  | 
37 | CCn1cc(-c2nc(-c3c[nH]c4ncc(F)cc34)nc(N[C@H]3C4CCC(CC4)[C@@H]3C(=O)O)c2F)cn1 [WX-294] | 0.1 |  | 
38 | CN(C)Cc1cc(-c2nc(-c3c[nH]c4ncc(F)cc34)nc(N[C@H]3C4CCC(CC4)[C@@H]3C(=O)O)c2F)cs1 [WX-295] | 0.013 |  | 
39 | N#CCn1cc(-c2nc(-c3c[nH]c4ncc(F)cc34)nc(N[C@H]3C4CCC(CC4)[C@@H]3C(=O)O)c2F)cn1 [WX-296] | 1 |  | 
40 | O=C(O)[C@H]1C2CCC(CC2)[C@@H]1Nc1nc(-c2n[nH]c3ncc(F)cc23)nc(C2CC2(F)F)c1F (stereo partly drawn) [WX-297] | 0.024 | 100 | 27.3
41 | O=C(O)[C@H]1C2CCC(CC2)[C@@H]1Nc1nc(-c2c[nH]c3ncc(F)cc23)nc(-c2ccc(Cl)s2)c1F [WX-298] | 6.7 |  | 
42 | CC1(c2nc(-c3n[nH]c4ncc(F)cc34)nc(N[C@H]3C4CCC(CC4)[C@@H]3C(=O)O)c2F)CC1 [WX-351] | 0.2 |  | 35.3
43 | O=C(O)[C@H]1C2CCC(CC2)[C@@H]1Nc1nc(-c2c[nH]c3ncc(F)cc23)nc(-c2ccn(C(F)F)n2)c1F [WX-352] | 0.046 |  | 
44 | O=C(O)[C@H]1C2CCC(CC2)[C@@H]1Nc1nc(-c2n[nH]c3ncc(F)cc23)nc(C2CC2F)c1F (stereo partly drawn) [WX-353] | 0.039 |  | 
45 | NC1(c2nc(-c3n[nH]c4ncc(F)cc34)nc(N[C@H]3C4CCC(CC4)[C@@H]3C(=O)O)c2F)CC1 [WX-354] | 4.4 |  | 
46 | O=C(O)[C@H]1C2CCC(CC2)[C@@H]1Nc1nc(-c2n[nH]c3ncc(F)cc23)nc(C2(F)CC2)c1F [WX-355] | 0.04 |  | 
47 | N#CC1(c2nc(-c3n[nH]c4ncc(F)cc34)nc(N[C@H]3C4CCC(CC4)[C@@H]3C(=O)O)c2F)CC1 [WX-358] | 0.6 |  | 
48 | N#C[C@H]1C[C@@H]1c1nc(-c2n[nH]c3ncc(F)cc23)nc(N[C@H]2C3CCC(CC3)[C@@H]2C(=O)O)c1F [WX-359] | 0.09 |  | 
49 | N#C[C@@H]1C[C@H]1c1nc(-c2n[nH]c3ncc(F)cc23)nc(N[C@H]2C3CCC(CC3)[C@@H]2C(=O)O)c1F [WX-360] | 0.2 |  | 
